Results as given in ChEMBL document CHEMBL5321209, “Design, synthesis of novel benzimidazole derivatives as ENL inhibitors suppressing leukemia cells viability via downregulating the expression of MYC” (Eur J Med Chem, 2023).

Key:
[1] = target: T1, Protein ENL (Homo sapiens) (UniProt Q03111); conditions: dose 333.0 nM, time 45.0 min
T1 sequence (whole entry): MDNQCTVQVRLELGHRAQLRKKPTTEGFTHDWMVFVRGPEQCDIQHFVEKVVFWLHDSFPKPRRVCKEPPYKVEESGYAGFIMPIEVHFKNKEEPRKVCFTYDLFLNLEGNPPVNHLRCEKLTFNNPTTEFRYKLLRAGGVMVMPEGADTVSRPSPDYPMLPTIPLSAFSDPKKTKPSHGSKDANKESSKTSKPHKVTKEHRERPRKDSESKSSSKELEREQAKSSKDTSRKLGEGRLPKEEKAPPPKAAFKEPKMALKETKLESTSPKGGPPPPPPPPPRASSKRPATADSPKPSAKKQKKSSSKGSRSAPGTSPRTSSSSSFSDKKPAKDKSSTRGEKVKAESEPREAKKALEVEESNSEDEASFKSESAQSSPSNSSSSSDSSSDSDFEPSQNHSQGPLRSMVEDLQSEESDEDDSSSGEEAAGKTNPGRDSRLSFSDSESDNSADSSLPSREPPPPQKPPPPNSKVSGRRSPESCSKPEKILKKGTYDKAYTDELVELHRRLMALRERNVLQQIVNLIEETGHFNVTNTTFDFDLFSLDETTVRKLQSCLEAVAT

[2] = target: T1, Protein ENL (Homo sapiens); conditions: dose 111.0 nM, time 45.0 min
Protein ENL [3] = target: T2, Protein ENL (Homo sapiens, UniProt Q03111); assay: Inhibition of C-terminal 6xHis-tagged ENL YEATS domain (1 to 148 residues) (unknown origin) expressed in Escherichia coli BL21(DE3) cells using biotin-H3K27ace as substrate incubated for 45 mins by alpha screen assay
T2 sequence (Q03111 whole entry): T1 sequence (whole entry)

MOLM-13 [4] = assay: Antiproliferative activity against human MOLM-13 cells assessed as inhibition of cell growth measured after 72 hrs by Cell Titer-Glo luminescent assay; format: functional, cell-based; conditions: MOLM-13, 72 h
[5] = target: T1, Protein ENL (Homo sapiens); conditions: dose 25.0 µM
MOLM-13 [6] = assay: Potency index, ratio of SGC-iMLLT IC50 to test compound IC50 for antiproliferative activity against human MOLM-13 cells; format: functional
[7] = target: T1, Protein ENL (Homo sapiens); conditions: dose 50.0 µM
[8] = target: T1, Protein ENL (Homo sapiens); conditions: dose 12.5 µM
Description: Binding affinity to C-terminal 6xHis-tagged ENL YEATS domain (1 to 148 residues) (unknown origin) expressed in Escherichia coli BL21(DE3) cells assessed as thermal stability by measuring change in melting temperature at 12.5 uM by SYPRO dye-based thermal shift assay

[9] = target: T1, Protein ENL (Homo sapiens); conditions: dose 6.3 µM
Description: Binding affinity to C-terminal 6xHis-tagged ENL YEATS domain (1 to 148 residues) (unknown origin) expressed in Escherichia coli BL21(DE3) cells assessed as thermal stability by measuring change in melting temperature at 6.3 uM by SYPRO dye-based thermal shift assay

Protein ENL [10] = target: T2, Protein ENL; assay: Binding affinity to ENL YEATS domain (unknown origin) assessed as dissociation constant by ITC assay
Protein ENL [11] = target: T2, Protein ENL; assay: Binding affinity toC-terminal 6xHis-tagged ENL YEATS domain (1 to 148 residues) (unknown origin) assessed as dissociation constant by BLI assay
Protein ENL [12] = target: T2, Protein ENL; assay: Inhibition of recombinantC-terminal 6xHis-tagged ENL YEATS domain (1 to 148 residues) (unknown origin) expressed in Escherichia coli BL21(DE3) cells using H3(13-32)K27cr as substrate by FRET assay
MV4-11 = assay: cells; conditions: Homo sapiens, MV4-11, 72 h
Description: Antiproliferative activity against human MV4-11 cells assessed as inhibition of cell growth measured after 72 hrs by Cell Titer-Glo luminescent assay

| Compound | inhibition [1] [%] | inhibition [2] [%] | IC50 (Protein ENL [3]) [nM] | further results |
| --- | --- | --- | --- | --- |
| Cc1nnc2ccc(C(=O)Nc3ccc4[nH]c(CN5CCC[C@@H]5C)nc4c3)cn12 | 84.5 | 57 | 267 | – |
| C[C@H]1CCCN1Cc1nc2cc(NC(=O)c3ccc4c(cnn4CCN4CCOCC4)c3)ccc2[nH]1 | 99.9 | 98.3 | 14.5 | IC50 (MOLM-13 [4]): 39600 nM; ΔTm [5]: 2 °C; Ratio IC50 (MOLM-13 [6]): 2; ΔTm [7]: 3.5 °C; ΔTm [8]: 1.3 °C; ΔTm [9]: 0.8 °C |
| CCn1ncc2cc(C(=O)Nc3ccc4[nH]c(CN5CCC[C@@H]5C)nc4c3)ccc21 | 100 | 98.3 | 18.9 | – |
| C[C@@H]1NC(=O)[C@H]([C@H](C)O)NC(=O)[C@@H](NC(=O)OCc2ccccc2)CCCCNC(=N)NCCC[C@H](C(=O)N[C@@H](CCCCNC(=O)c2cnco2)C(N)=O)NC1=O | – | – | – | Kd (Protein ENL [10]): 14100 nM |
| O=C(/C=C/c1ccc(-n2ccnc2)cc1)N1CCN(C(=O)c2ccco2)CC1 | – | – | – | Kd (Protein ENL [11]): 14000 nM; IC50 (Protein ENL [12]): 19000 nM |
| C[C@H]1CCCN1Cc1nc2cc(NC(=O)c3ccc4c(cnn4CCN)c3)ccc2[nH]1 | 100 | 100 | 28.2 | – |
| Cc1ccccc1C(=O)NCCn1ncc2cc(C(=O)Nc3ccc4[nH]c(CN5CCC[C@@H]5C)nc4c3)ccc21 | 96.1 | 68.4 | 35.4 | – |
| C[C@H]1CCCN1Cc1nc2cc(NC(=O)c3ccc4nn(CCNC(=O)OC(C)(C)C)cc4c3)ccc2[nH]1 | 99.1 | 56 | 37.9 | – |

The remaining molecules from weak to strong by IC50 (Protein ENL [3]), led by results:

| inhibition [1] [%] | inhibition [2] [%] | IC50 (Protein ENL [3]) [nM] | Compound | further results |
| --- | --- | --- | --- | --- |
| 99.6 | 86.8 | 77 | C[C@H]1CCCN1Cc1nc2cc(NC(=O)c3ccc4nn(C)cc4c3)ccc2[nH]1 | – |
| 99.3 | 87.3 | 48.8 | Cc1noc2ccc(C(=O)Nc3ccc4[nH]c(CN5CCC[C@@H]5C)nc4c3)cc12 | – |
| 99.3 | 84.6 | 32.3 | C[C@H]1CCCN1Cc1nc2cc(NC(=O)c3ccc4c(cnn4CCN4CC(O)C(O)C4C(O)CO)c3)ccc2[nH]1 (some centres not stated) | – |
| 98.4 | 84.1 | 17.2 | C[C@H]1CCCN1Cc1nc2cc(NC(=O)c3ccc4nn(CCN)cc4c3)ccc2[nH]1 | – |
| 100 | 98 | 17 | CCCCn1ncc2cc(C(=O)Nc3ccc4[nH]c(CN5CCC[C@@H]5C)nc4c3)ccc21 | – |
| 99.9 | 99.1 | 10.7 | Cc1noc2cc(C(=O)Nc3ccc4[nH]c(CN5CCC[C@@H]5C)nc4c3)ccc12 | IC50 (MOLM-13 [4]): 37900 nM; ΔTm [5]: 3.9 °C; IC50 (MV4-11): 51400 nM; Ratio IC50 (MOLM-13 [6]): 2; ΔTm [7]: 4.9 °C; ΔTm [8]: 2.8 °C; ΔTm [9]: 1.8 °C |
